Data: EP1310250A1, “Use of the compound 2-methoxyphenyl-1-methyl-5P-methylbenzoyl-pyrrol-2-acetamido acetate for the production of an antiinflammatory drug with prevention of gastric hypersecretion and renal impairment” (MEDOSAN Ricerca S.r.l., priority 1997, dated 1999)

How the values were obtained:
gastric lesions = assay: Clinics with before/after endoscopies; format: in vivo, man; settings: especially when administered on an empty stomach
rat gastric mucosa = settings: male, Wistar, in vivo, po, 4 days
Method: The animals entered in the trial, randomized and divided into groups of 6 rats each, were fasted for 16 h prior to treatment, with access to water ad libitum. They were re-fed 1 h after drug administration. The compound 2-methoxyphenyl-1-methyl-5p-methylbenzoyl-pyrrol-2-acetamido acetate and the other reference NSAIDs, suspended in 1% carboxymethylcellulose (CMC) solution, were orally administered by gastric gavage in a volume of 6ml/kg for four consecutive days. Controls received the vehicle in the same way as the treated animals. 4 h after the last administration the animals were killed by ether overdose; the stomachs were removed, rinsed with 10 ml of saline and immersed in 1% formalin. They were later opened along the greater curvature and the mucosa examined for lesions.
The seriousness of the lesion was quantified according to a scale graduated from 1 to 3 according to the size of the lesions: 1= ulcer < 1mm; 2= ulcer 1-2mm; 3= ulcer > 2mm. The total sum was divided by 10 to obtain the "erosion index". The gastric lesions were evaluated by two independent investigators under blind conditions according to Main & Whittle method (BJ Pharmac 1975:53; p. 217-224).
Since the average daily dose in man (for the anti-inflammatory activity) is 600 mg, the comparative efficacious dose in the rat is in the ratio of 12:1. More precisely, comparative evaluation with the other NSAID compounds was calculated as follows: 600 mg/die: 50 mg/kg = daily dose of reference NSAID in man: X [formula] where X represents the daily dose of the reference NSAID in rat. This criterion keeps into account the "real" activity ratio in man. In this work the "ratio to rat dosage" has also been included which keeps into account ratios homogeneous to the same animal species. To evaluate the "ratio to rat dosage" the ID50 has been determined using the carrageenin-induced oedema as inflammatory test.
In order to exacerbate possible side effects on the stomach the dosage of amtolmetin guacyl was quadruplicated.

Adjuvant arthritis = assay: Adjuvant arthritis: joint inflammation and patellar bone erosion; format: in vivo, rats; settings: patellar bone mass; MED 15 25, 50, 100mg/kg, piroxicam 3mg/kg
Method: The drugs were administered daily by oral gavage for 4 days (day 0-3); piroxicam and MED 15 were dissolved in 5% Gum arabic + 0.01% Tween 80, and administered in a volume of 0.5ml. Piroxicam was administered as 3mg/kg and MED 15 was administered as 25, 50 and 100mg/kg doses. Table 8 bis illustrating dosage regimes. L=left stifle joint, R=Right stifle joint.
Under halothane anaesthesia, rats received 200µg of heat-killed finely ground Mycobactyerium tubercolosis in 25µl (80mg/10ml sterile saline) injected intra-articulary into the left stifle joint. The contralateral joint received 25µl 0.9% sterile saline. Control animals received 25µl of 0.9% sterile saline in both knees. SGE 50µl microsyringes with a volume lock calibrated at 25µl were used with 30G stainless steel needles. Solutions were prepared sterile, and aseptic technique was used throughout, with sterilisation of syringes between groups.
The rats were killed by carbon dioxide suffocation. The body weight was noted and the skin overlying the stifle joints was divided and the joint diameters assessed in mm using Mitutoyo vernier callipers (530-312, 0.02mm).
The patellae were dissected, weighed (Sartorius, 0.01mg) and then immersed in 1ml digestion buffer (see below) to remove soft tissue.
Digestive buffer was prepared fresh to the following formula; disodium hydrogen orthophosphate 20mM, EDTA 1mM and diothiothreitol at 2mM. […]

diuresis = assay: Diuresis in normally hydrated rats; format: in vivo; settings: normally hydrated rats treated orally for 8 consecutive days (figure 13)
Method: In the course of various studies conducted on animals to show the lack of renal impairment, a test was carried out to compare the diuresis in normally hydrated rats treated orally for 8 consecutive days with amtolmeting guacyl and diclofenac, which is also a NSAID.

[1] = tested on: rat isolated stomach strips; assay: Gastric motility in isolated stomach strips, acetylcholine and serotonin as agonists; settings: acetilcholine and serotonin as agonists (fig. 10, 11 and 12)
[2] = tested on: post-traumatic arthralgia; assay: Clinical trials: analgesic properties in post-traumatic arthralgia; format: in vivo, man; settings: Amtolmetin guacyl 600mgx2-daily, Diclofenac 50mgx2-daily, 15 patients each
Text: The same can be said in the treatment of post-traumatic arthralgia.

Carcinogenesis = Carcinogenesis studies, gavage over life-span; format: in vivo, rat; settings: gavage for a period covering the animal's life-span
gastric acid secretion = assay: Antisecretory activity in vivo in rat, histamine-induced acid secretion
Method: The methods used were those described by G Coruzzi, M. Adami, C. Pozzoli, E. Poli, G. Bertaccini (Pharmacology 1994;48: pages 69-76) and M. Leitold, W. Fleissig and A. Merk (Arzneim-Forsch/Drug Res. 34(I), Nr. 4, 1984).
The animals were treated in oral administration with amtolmetin guacyl 50 or 100 mg/kg, 1 h before the beginning of the perfusion with histamine. The controls received only the vehicle (CMC 1%).
After anaesthesia with urethan (1.25 g/kg i.p.), the oesophagus was ligated close to the stomach. Two cannulas of polyethylene are then inserted: one was inserted in the forestomach, the second one was inserted directly into the pyloric sphincter. The stomach was flushed with saline at 37°C (1 ml/min) and the flushed liquid, collected every 15 minutes, titred at ph 7 with NaOH 10^-2 M. The acid secretion was induced by an intravenous infusion (0.1 ml/min) of histamine (30 µmol/kg/h).
The acidity is expressed as µEqH^+/15 min.

[3] = tested on: blood pressure and cardiovascular system; assay: Drug safety trials on blood pressure and cardiovascular system; settings: rat, in vivo
Text: From a toxicological viewpoint the drug offers an excellent torability profile.

SMILES: COc1ccccc1OC(=O)CNC(=O)Cc1ccc(C(=O)c2ccc(C)cc2)n1C [amtolmetin guacyl, 2-methoxyphenyl-1-methyl-5p-methylbenzoylpyrrol-2-acetamido acetate]
- induction of gastric lesions (gastric lesions): not to induce gastric lesions
- Gastrolesive index (rat gastric mucosa): 1.0
- protection against bone loss (Adjuvant arthritis): dose dependent protective effect
- diuresis (diuresis): definite increase in diuresis
- gastric motility [1]: clear evidence of down-regulation of motility
- Duration [2]: 360 min
- Latency [2]: 20 min
- Max. time effect [2]: 60 min
- Carcinogenesis (Carcinogenesis): innocuity of the product
- acidity (gastric acid secretion; 50 mg/kg oral 1 h before histamine perfusion, time 0 min): 4 µEqH^+/15'
- acidity (gastric acid secretion; 50 mg/kg oral 1 h before histamine perfusion, time 15 min): 4 µEqH^+/15'
- acidity (gastric acid secretion; 50 mg/kg oral 1 h before histamine perfusion, time 30 min): 5 µEqH^+/15'
- acidity (gastric acid secretion; 50 mg/kg oral 1 h before histamine perfusion, time 45 min): 11 µEqH^+/15'
- acidity (gastric acid secretion; 50 mg/kg oral 1 h before histamine perfusion, time 60 min): 15 µEqH^+/15'
- acidity (gastric acid secretion; 50 mg/kg oral 1 h before histamine perfusion, time 75 min): 17 µEqH^+/15'
- acidity (gastric acid secretion; 50 mg/kg oral 1 h before histamine perfusion, time 90 min): 19 µEqH^+/15'
- acidity (gastric acid secretion; 50 mg/kg oral 1 h before histamine perfusion, time 105 min): 18.5 µEqH^+/15'
- acidity (gastric acid secretion; 50 mg/kg oral 1 h before histamine perfusion, time 120 min): 22 µEqH^+/15'
- acidity (gastric acid secretion; 50 mg/kg oral 1 h before histamine perfusion, time 135 min): 20 µEqH^+/15'
- acidity (gastric acid secretion; 100 mg/kg oral 1 h before histamine perfusion, time 0 min): 8 µEqH^+/15'
- acidity (gastric acid secretion; 100 mg/kg oral 1 h before histamine perfusion, time 15 min): 7 µEqH^+/15'
- acidity (gastric acid secretion; 100 mg/kg oral 1 h before histamine perfusion, time 30 min): 9 µEqH^+/15'
- acidity (gastric acid secretion; 100 mg/kg oral 1 h before histamine perfusion, time 45 min): 11 µEqH^+/15'
- acidity (gastric acid secretion; 100 mg/kg oral 1 h before histamine perfusion, time 60 min): 12 µEqH^+/15'
- acidity (gastric acid secretion; 100 mg/kg oral 1 h before histamine perfusion, time 75 min): 13 µEqH^+/15'
- acidity (gastric acid secretion; 100 mg/kg oral 1 h before histamine perfusion, time 90 min): 14 µEqH^+/15'
- acidity (gastric acid secretion; 100 mg/kg oral 1 h before histamine perfusion, time 105 min): 15 µEqH^+/15'
- acidity (gastric acid secretion; 100 mg/kg oral 1 h before histamine perfusion, time 120 min): 13 µEqH^+/15'
- acidity (gastric acid secretion; 100 mg/kg oral 1 h before histamine perfusion, time 135 min): 14 µEqH^+/15'
- effects on blood pressure and on the cardiovascular system [3]: absence of effects on blood pressure and on the cardiovascular system
